Assays:
healthy subjects = test: Acute subjective effects on the Visual Analog Scale (VAS); format: in vivo, human
Description: Study design: The present study compares the acute subjective, physiological and endocrine effects of S-MDMA (125 mg), R-MDMA (125 and 250 mg), MDMA (125 mg) using a placebo-controlled double-blind 5-period cross-over design in 24 healthy subjects. Conditions are 1.) R-MDMA 125 mg, 2). R-MDMA 250 mg, 3) S-MDMA 125 mg, 4) MDMA 125 mg, 5) placebo. Treatment order is counterbalanced. Washout periods between substance administrations are at least 10 days. Study days include a 10-hour study session with a subsequent single measurement (short visit) the next morning (24 hours after drug administration).
Study procedures: The study takes place at the University Hospital Basel. Each of the test sessions last from 8:00 until 18:00 with a short visit the next morning (24 hours after application). An indwelling intravenous catheter is inserted into a subcutaneous vein of the forearm and baseline psychometric measures are obtained. Administration of the substance is at 9:00. Outcome measures (see below) are repeatedly assessed during the study session. Subjects are under continuous medical supervision until any alterations of consciousness have completely subsided and they leave the research facility.
Psychometric assessments: Visual Analog Scale (VAS): VASs is repeatedly used to assess subjective alterations in consciousness over time. Single scales are presented as 100 mm horizontal lines marked with “not at all” on the left and “extremely” on the right. The following VAS items are used: “any drug effect”, “good drug effect”, “bad drug effect”, “stimulated”, “liking”, “happy”, “content”, “talkative”, “open”, “trust”, “feeling close to others”, “anxiety”, “alteration of vision”, “alterations of hearing”, “sounds seem to influence what I see”, “alteration of sense of time”, “the boundaries between myself and my surroundings seem to blur”, “want to be with other people”, and “want to be alone”. Scales are administered before and repeatedly after substance administration and take approximately 2 minutes to fill out. The maximal ratings (Emax, 0-100) and areas under the effect-time curve (AUEC) are defined for each VAS and Emax and AUEC values compared between treatments using analysis of variance. 5-Dimensions of Altered States of Consciousness (5D-ASC): The 5 Dimensions of Altered States of Consciousness (5D-ASC) Scale is a questionnaire containing visual analog scales for 94 items (Studerus et al., 2010). The instrument contains five scales assessing mood, anxiety, derealization, depersonalization, changes in perception, auditory alterations, and reduced vigilance. The scale is well-validated (Studerus et al., 2010) and used internationally to evaluate effects of many other psychoactive substances. The overall psychedelic experience is reflected by the total […] score. Each item of the scale is scored on a 0-100 mm VAS. The attribution of the individual items to the subscales of the 5D-ASC is analyzed according to (Studerus et al., 2010). The 5D-ASC scale is administered once at the end of the session and subjects are instructed to retrospectively rate peak alterations that have been experienced during the study session. Adiective Mood Rating Scale (AMRS): The Adjective Mood Rating Scale (AMRS or EWL60S) is a 60-item Likert scale that allows repeated assessment of mood in 6 dimensions: Activation, inactivation, well-being, anxiety/depressed mood, extra- and introversion, and emotional excitability. The German EWL60S version is used. The AMRS consists of subscales measuring “activation,” “positive mood,” “extraversion,” “introversion,” “inactivation,” and “emotional excitability. The scale has previously been used to evaluate effects of many other psychoactive substances. Emax and AUEC scores will be defined for each subscale and compared between treatments using analysis of variance. The AMRS is administered repeatedly throughout the study session and once 3 days after each session. […]

[1] = mice; cited from earlier work
mice = conditions: cited from earlier work
rodents = conditions: relative to racemic MDMA; cited from earlier work
animals = conditions: various animal studies; cited from earlier work

Row | SMILES | VAS Emax for “feeling high” (healthy subjects; 250 mg R-MDMA compared with 125 mg (±)-MDMA, 24 subjects) | VAS “drug high”, “happy”, “content”, “talkative”, “open”, “trust” and “I feel close to others” (healthy subjects; 250 mg R-MDMA versus (±)-MDMA and S-MDMA) | enantiomer converted to the other enantiomer after administration [1] [%] | duration of discriminative stimulus effects (mice) | potency for locomotor stimulant effects (rodents) | social interaction (animals) | how much stimulated participants felt (healthy subjects; 125 mg S-MDMA compared to (±)-MDMA) | how much stimulated participants felt (healthy subjects; 125 mg S-MDMA compared to both doses of R-MDMA) | VAS Emax for “bad drug effects,” “alteration of vision” and “audio-visual synesthesia” (healthy subjects; 125 mg S-MDMA compared with 125 mg (±)-MDMA, 24 subjects) | VAS items “alteration of vision” and “audio-visual synesthesia” (healthy subjects; 125 mg S-MDMA compared with both R-MDMA doses and (±)-MDMA) | all VAS items except “fear” (healthy subjects; 125 mg S-MDMA versus 250 mg R-MDMA) | VAS “any drug effects”, “good drug effects”, “I like the effect”, “stimulation”, “alteration of time” and “ego dissolution” (healthy subjects; 125 mg S-MDMA versus 125 and 250 mg R-MDMA) | VAS “bad drug effects,” “alteration of vision” and “audio-visual synesthesia” (healthy subjects; 125 mg S-MDMA versus (±)-MDMA and 250 mg R-MDMA) | VAS “talkative,” “open,” “trust,” and “I feel close to others” (healthy subjects; 125 mg, compared with both R-MDMA doses and placebo) | feelings of “drug high” (healthy subjects; S-MDMA compared with R-MDMA, abuse potential) | onset of interoceptive effects (mice; compared with R-MDMA)
1 | CN[C@H](C)Cc1ccc2c(c1)OCO2 [R-MDMA, R(−)-MDMA] | lower Emax values | lower effects | 3.5 | shortest | clearly less potent than racemic MDMA | Increased social interaction | – | – | – | – | – | – | – | – | – | –
2 | CN[C@@H](C)Cc1ccc2c(c1)OCO2 [S-MDMA, S(+)-MDMA] | – | – | 9.9 | – | mostly equipotent to racemic MDMA | only slightly with S-MDMA or not at all | no significant difference | higher values | higher Emax values | higher increases | significant stronger effects | more than 125 and 250 mg R-MDMA | stronger | higher values | greater | faster
